Results on twelve compounds are retold here after ChEMBL document CHEMBL1201862, “PubChem BioAssay data set” (2004).

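All cell lines were grown in 96-well plates and treated with compound for 48 hours. GI50 is the concentration that inhibits growth by half.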 Calls of active or inactive are those of the source. No stated cut-off is given here; in the data, active = GI50 up to about 1.1 µM and inactive = higher.

Some test systems named below: RPMI-8226; SR; CCRF-CEM; SK-MEL-2; OVCAR-3; RXF 393; HCT-15; M14; SF-295; SNB-19; NCI-H23; TK-10; UO-31; UACC-257; OVCAR-4; Malme-3M; SK-MEL-5; SN12C; MDA-N.
Common to all, as to assay: inhibition of tumour cell growth, NCI panel, 48 h

`CCC1C(=O)OCc2c1cc1n(c2=O)Cc2ccccc2-1` (stereo not drawn): the GI50 with RPMI-8226, with SR, in the test on CCRF-CEM, in the test with SK-MEL-2, in the test with OVCAR-3 and in the test with RXF 393 was > 100 µM (inactive) throughout. The GI50 is greater than 100 µM with HCT-15; > 100 µM (inactive) in the test with M14; > 100 µM (inactive) in the test with SF-295; > 100 µM (inactive) with SNB-19; > 100 µM (inactive) in the test with NCI-H23; > 100 µM (inactive) in the test on TK-10. The GI50 in the test on UO-31, with UACC-257, in the test on OVCAR-4, in the test on Malme-3M, in the test with SK-MEL-5 and with SN12C was > 100 µM (inactive) in each case.
As for `O=C(NCc1ccccc1)C1C(=O)C(=O)N(Cc2ccccc2)C1=O` (stereo not drawn), the GI50 in the test on RPMI-8226, with SR, with CCRF-CEM, with SK-MEL-2, in the test with OVCAR-3 and in the test with RXF 393 was > 100 µM (inactive) each time. In addition, the GI50 with HCT-15 is greater than 100 µM; with M14, > 100 µM (inactive); in the test on SF-295, > 100 µM (inactive); in the test with SNB-19, > 100 µM (inactive); with NCI-H23, > 100 µM (inactive); in the test on TK-10, > 100 µM (inactive). Besides, the GI50 with UO-31, in the test with UACC-257, in the test on OVCAR-4, in the test on Malme-3M, in the test with SK-MEL-5 and in the test on SN12C was > 100 µM (inactive) throughout.
Take `O=Cn1c2ccccc2c2ccccc21`: the GI50 in the test on RPMI-8226, with SR, in the test with CCRF-CEM, with SK-MEL-2, in the test with OVCAR-3 and in the test on RXF 393 was > 100 µM (inactive) each time. Also, the GI50 in the test on HCT-15 is greater than 100 µM; in the test with M14 it was > 100 µM (inactive); in the test on SF-295, > 100 µM (inactive); with SNB-19, > 100 µM (inactive); with NCI-H23, > 100 µM (inactive); in the test on TK-10, > 100 µM (inactive). Also, the GI50 in the test on UO-31, in the test on UACC-257, in the test with Malme-3M, in the test on SK-MEL-5 and in the test with SN12C was > 100 µM (inactive) throughout.
Turning to `COc1ccc(C2C(Cl)C(=O)N2n2cnc3ccccc3c2=O)cc1` (stereo not drawn), the GI50 with RPMI-8226 is 33.4 µM (inactive); in the test with SR, 33 µM (inactive); in the test with CCRF-CEM, > 10 µM (inactive); with SK-MEL-2 it was > 100 µM (inactive); with OVCAR-3, 85.7 µM (inactive); in the test with RXF 393, 30.8 µM (inactive). For the same compound, the GI50 was greater than 100 µM in the test on HCT-15; 28.4 µM (inactive) with M14; > 100 µM (inactive) with SF-295; > 100 µM (inactive) in the test with SNB-19; 94 µM (inactive) with NCI-H23; 98.6 µM (inactive) in the test with TK-10. In addition, the GI50 in the test on UO-31 is 71 µM (inactive); in the test on UACC-257 it was > 100 µM (inactive); in the test with OVCAR-4, 33.3 µM (inactive); in the test on Malme-3M, > 100 µM (inactive); with SK-MEL-5, 87.1 µM (inactive); in the test with SN12C, > 100 µM (inactive).
In the case of `CCOc1ccccc1NC(=O)CC1C(=O)Nc2ccccc2[S+]1[O-]` (stereo not drawn), the GI50 was 11.4 µM (inactive) with RPMI-8226; 16.5 µM (inactive) in the test on SR; 39.8 µM (inactive) with CCRF-CEM; > 100 µM (inactive) with SK-MEL-2; 39.5 µM (inactive) with OVCAR-3; 50 µM (inactive) with RXF 393. Moreover, the GI50 in the test on HCT-15 is greater than 100 µM; with M14, 77.1 µM (inactive); with SF-295, > 100 µM (inactive); with SNB-19, > 100 µM (inactive); in the test on NCI-H23, > 100 µM (inactive); in the test with TK-10, > 100 µM (inactive). Further, the GI50 with UO-31 was 85.3 µM (inactive); in the test on UACC-257, > 100 µM (inactive); in the test on OVCAR-4, 32.4 µM (inactive); with Malme-3M, > 100 µM (inactive); in the test on SK-MEL-5, 54.8 µM (inactive); in the test on SN12C, > 100 µM (inactive).
In the case of `O=C(NCc1ccccc1)c1cc2ccc(O)c(O)c2cn1`, the GI50 is 19.1 µM (inactive) in the test with RPMI-8226; 32.6 µM (inactive) in the test on SR; 32.1 µM (inactive) in the test on CCRF-CEM; 12.4 µM (inactive) with SK-MEL-2; 18.2 µM (inactive) in the test with OVCAR-3; 16.6 µM (inactive) in the test on RXF 393. The GI50 was 26.7 µM in the test with HCT-15; 5.21 µM (inactive) with M14; 16.9 µM (inactive) in the test with SF-295; 35.4 µM (inactive) in the test with SNB-19; 12.1 µM (inactive) in the test on NCI-H23; > 100 µM (inactive) in the test on TK-10. The GI50 with UO-31 is 18.1 µM (inactive); with UACC-257, 15.6 µM (inactive); in the test on OVCAR-4 it was 16.6 µM (inactive); in the test on Malme-3M it was 16.7 µM (inactive); in the test on SK-MEL-5, 11.1 µM (inactive); in the test on SN12C, 17.6 µM (inactive).
On to `CC1(C)OCC2OC3([C@H]4OC(C)(C)O[C@@H]4CO)OC(C)(C)OC3C2O1` (stereo partly drawn), for which the GI50 in the test with RPMI-8226, in the test on SR, in the test with CCRF-CEM, in the test on MDA-N, with SK-MEL-2 and with OVCAR-3 was > 100 µM (inactive) throughout. For the same compound, the GI50 with RXF 393 was > 100 µM (inactive); in the test with HCT-15 it was greater than 100 µM; with M14, > 100 µM (inactive); in the test on SF-295, > 100 µM (inactive); with SNB-19, > 100 µM (inactive); in the test with NCI-H23 it was > 100 µM (inactive). Also, the GI50 with UO-31, with UACC-257, in the test with OVCAR-4, with SK-MEL-5 and with SN12C was > 100 µM (inactive) each time.
As to `NNC(=O)CNC(=O)CSc1nnc(COc2ccc(Cl)cc2)n1-c1ccccc1`, the GI50 is 60.5 µM (inactive) with CCRF-CEM; > 100 µM (inactive) in the test on MDA-N; > 100 µM (inactive) in the test on SK-MEL-2; > 100 µM (inactive) in the test with OVCAR-3; > 100 µM (inactive) with RXF 393; greater than 100 µM in the test with HCT-15. Further, the GI50 with M14, with SF-295, in the test on SNB-19, in the test on NCI-H23, with TK-10 and with UO-31 was > 100 µM (inactive) throughout. In addition, the GI50 in the test on UACC-257, in the test on OVCAR-4, in the test with Malme-3M and in the test with SN12C was > 100 µM (inactive) in each case.
As for `COC(=O)c1cc(Br)c(C(=O)C(Cl)(Cl)Cl)[nH]1`, the GI50 in the test on RPMI-8226, in the test on CCRF-CEM, with MDA-N, in the test on SK-MEL-2, in the test with OVCAR-3 and with RXF 393 was > 100 µM (inactive) each time. Further, the GI50 with HCT-15 is greater than 100 µM; with M14, > 100 µM (inactive); in the test with SF-295, > 100 µM (inactive); in the test with SNB-19, > 100 µM (inactive); with NCI-H23, > 100 µM (inactive); with TK-10, > 100 µM (inactive). For the same compound, the GI50 with UO-31, with UACC-257, with OVCAR-4, with Malme-3M, in the test with SK-MEL-5 and in the test on SN12C was > 100 µM (inactive) throughout.
Consider `COc1ccc(-c2c(C(C)=O)c(-c3ccccc3)n(C3OC(COC(C)=O)C(OC(C)=O)C(OC(C)=O)C3OC(C)=O)c(=S)c2C#N)cc1` (stereo not drawn), for which the GI50 in the test on SR is > 100 µM (inactive); with CCRF-CEM, > 100 µM (inactive); with MDA-N, > 100 µM (inactive); in the test with OVCAR-3 it was > 100 µM (inactive); with RXF 393 it was > 100 µM (inactive); in the test with HCT-15 it was greater than 100 µM. Besides, the GI50 in the test on M14, in the test on SF-295, in the test on SNB-19, in the test with NCI-H23, in the test on TK-10 and with UACC-257 was > 100 µM (inactive) each time. For the same compound, the GI50 in the test with OVCAR-4, in the test with Malme-3M, in the test on SK-MEL-5 and with SN12C was > 100 µM (inactive) throughout.
On to `O=C1OCc2nc3c(c(-c4ccccc4C(F)(F)F)c21)C(=O)OC3`, for which the GI50 with RPMI-8226, in the test on SR, in the test with CCRF-CEM, in the test with SK-MEL-2, in the test with OVCAR-3 and in the test with RXF 393 was > 100 µM (inactive) each time. Also, the GI50 with HCT-15 is greater than 100 µM; in the test with M14 it was > 100 µM (inactive); in the test on SF-295, > 100 µM (inactive); in the test on SNB-19, > 100 µM (inactive); in the test on NCI-H23, > 100 µM (inactive); in the test on TK-10, > 100 µM (inactive). Also, the GI50 with UO-31, in the test on UACC-257, in the test on Malme-3M, in the test on SK-MEL-5 and with SN12C was > 100 µM (inactive) each time.
In the case of `CCCCCCCCCCCC[N+]12CC[N+](C)(CC1)CC2`, the GI50 is 15.8 µM (inactive) in the test with RPMI-8226; 6.18 µM (inactive) in the test on SR; 18.8 µM (inactive) with CCRF-CEM; 77.8 µM (inactive) in the test with SK-MEL-2; 64.1 µM (inactive) in the test on OVCAR-3; 1.31 µM (inactive) in the test on RXF 393. For the same compound, the GI50 in the test on M14 is 29.6 µM (inactive); with SF-295 it was 22.3 µM (inactive); in the test on SNB-19, 14 µM (inactive); in the test on NCI-H23 it was 20.9 µM (inactive); in the test with TK-10, 1.89 µM (inactive); with UO-31, > 100 µM (inactive). The GI50 is > 100 µM (inactive) with UACC-257; 44.8 µM (inactive) in the test on OVCAR-4; 46.9 µM (inactive) in the test on Malme-3M; > 100 µM (inactive) in the test on SK-MEL-5; 18.3 µM (inactive) in the test with SN12C.
